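The compound was tested at five concentrations on cells cultured in 96-well plates, with a 48-hour exposure period. Abbreviation: GI50, concentration required for 50% inhibition of growth.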 Active and inactive are the calls of the source. No stated cut-off is given here; in the data, active = GI50 up to about 1.1 µM and inactive = higher.
How the values were obtained:
Experiment in all cases: NCI tumour cell line growth inhibition, 48 h
HCC 2998 = test system: HCC 2998
HOP-92 = test system: HOP-92
UACC-62 = test system: UACC-62
SK-MEL-28 = test system: SK-MEL-28
OVCAR-8 = test system: OVCAR-8
M14 = test system: M14
786-0 = test system: 786-0
SF-539 = test system: SF-539
COLO 205 = test system: COLO 205
RPMI-8226 = test system: RPMI-8226
CAKI-1 = test system: CAKI-1
SNB-19 = test system: SNB-19
K562 = test system: K562
UO-31 = test system: UO-31
LOX IMVI = test system: LOX IMVI
ACHN = test system: ACHN
UACC-257 = test system: UACC-257

Measured: GI50

CCOC(=O)C1C(=O)C(=O)N2CCc3c([nH]c4ccccc34)C12 (configuration not stated)
inactive: HCC 2998 > 100 µM | HOP-92 > 100 µM | UACC-62 > 100 µM | SK-MEL-28 > 100 µM | OVCAR-8 > 100 µM | M14 > 100 µM | 786-0 > 100 µM | SF-539 > 100 µM | COLO 205 > 100 µM | RPMI-8226 > 100 µM | CAKI-1 > 100 µM | SNB-19 > 100 µM | K562 > 100 µM | UO-31 > 100 µM

Cc1ccc(/C=C(\C#N)c2ccccc2)cc1
inactive: HCC 2998 > 100 µM | HOP-92 > 100 µM | UACC-62 > 100 µM | SK-MEL-28 > 100 µM | OVCAR-8 > 100 µM | M14 > 100 µM | 786-0 > 100 µM | SF-539 > 100 µM | COLO 205 > 100 µM | LOX IMVI > 100 µM | RPMI-8226 > 100 µM | CAKI-1 > 100 µM | ACHN > 100 µM | K562 > 100 µM | UACC-257 > 100 µM | UO-31 > 100 µM

Nc1ccc(C2=Nc3ccccc3SC(c3ccccc3O)C2)cc1 (configuration not stated)
inactive: HCC 2998 32.1 µM | UACC-62 38.8 µM | SK-MEL-28 65.8 µM | OVCAR-8 42.1 µM | M14 54.6 µM | 786-0 28.8 µM | SF-539 38.2 µM | COLO 205 45.1 µM | LOX IMVI 30.7 µM | RPMI-8226 17.5 µM | CAKI-1 58.9 µM | SNB-19 43.1 µM | ACHN 42.2 µM | K562 15.3 µM | UACC-257 51.9 µM | UO-31 29.8 µM

Cc1cn(C2CC(CCCO)C(CO)O2)c(=O)[nH]c1=O (configuration not stated)
inactive: HCC 2998 > 100 µM | UACC-62 > 100 µM | SK-MEL-28 > 100 µM | OVCAR-8 > 100 µM | M14 > 100 µM | 786-0 > 100 µM | COLO 205 > 100 µM | LOX IMVI > 100 µM | RPMI-8226 > 100 µM | CAKI-1 > 100 µM | SNB-19 > 100 µM | ACHN > 100 µM | K562 > 100 µM | UACC-257 > 100 µM | UO-31 > 100 µM

CC(=O)OC1C[C@H]2C(OC(=O)c3ccccc3)C3C4(OC(C)=O)COC4C[C@H](OC(C)=O)[C@@]3(C)C(OC(C)=O)[C@H](OC(C)=O)C(=C1C)C2(C)C (some centres not stated)
inactive: UACC-62 77.1 µM | SK-MEL-28 > 100 µM | OVCAR-8 41.2 µM | M14 23.2 µM | 786-0 35.9 µM | SF-539 50 µM | COLO 205 42.7 µM | LOX IMVI 40.9 µM | RPMI-8226 20.4 µM | CAKI-1 13.5 µM | SNB-19 24.2 µM | ACHN 21 µM | K562 23.8 µM | UACC-257 58.6 µM | UO-31 24.9 µM

CN1C(=O)c2cccc3c([N+](=O)[O-])ccc(c23)C1=O
inactive: HCC 2998 6 µM | HOP-92 6.52 µM | UACC-62 1.77 µM | SK-MEL-28 18.8 µM | OVCAR-8 6.01 µM | M14 11.1 µM | 786-0 8.85 µM | SF-539 13.2 µM | COLO 205 7.26 µM | LOX IMVI 6.12 µM | CAKI-1 2.45 µM | SNB-19 14.2 µM | ACHN 10.1 µM | K562 4.1 µM | UACC-257 9.53 µM | UO-31 13.7 µM

Cc1ccc(S(=O)(=O)ON/N=C2/C3OC3[C@@H]3CCCC[C@H]23)cc1 (some centres not stated)
active: OVCAR-8 0.507 µM | UACC-257 0.692 µM
inactive: HCC 2998 71.4 µM | HOP-92 > 100 µM | UACC-62 > 100 µM | SK-MEL-28 > 100 µM | M14 > 100 µM | 786-0 > 100 µM | SF-539 > 100 µM | COLO 205 > 100 µM | RPMI-8226 > 100 µM | CAKI-1 > 100 µM | SNB-19 > 100 µM | ACHN > 100 µM | K562 > 100 µM | UO-31 > 100 µM

Cc1c(C(=O)c2ccccc2C(=O)O)c2ccccc2n1C
inactive: HCC 2998 > 100 µM | UACC-62 > 100 µM | SK-MEL-28 > 100 µM | OVCAR-8 > 100 µM | M14 > 100 µM | 786-0 > 100 µM | SF-539 > 100 µM | RPMI-8226 > 100 µM | CAKI-1 > 100 µM | ACHN > 100 µM | K562 > 100 µM | UACC-257 > 100 µM | UO-31 > 100 µM

CC(C)C(CCOS(=O)(=O)O)CCC(C)[C@H]1[C@@H](O)C(O)C2[C@]3(O)C[C@@H](O)C4(O)C[C@@H](O)CC[C@]4(C)C3CC[C@@]21C (some centres not stated)
inactive: HCC 2998 > 100 µM | HOP-92 > 100 µM | UACC-62 > 100 µM | SK-MEL-28 > 100 µM | OVCAR-8 > 100 µM | M14 > 100 µM | 786-0 > 100 µM | SF-539 > 100 µM | COLO 205 > 100 µM | LOX IMVI > 100 µM | RPMI-8226 > 100 µM | CAKI-1 > 100 µM | SNB-19 > 100 µM | ACHN > 100 µM | K562 > 100 µM | UO-31 > 100 µM

Reference: ChEMBL document CHEMBL1201862, “PubChem BioAssay data set” (2004)
